The values below are quoted from earlier work in patent publication US20080004343A1, “Stable polymorphs of (E)-N,N-diethyl-2-cyano-3-(3,4-dihydroxy-5-nitrophenyl)acrylamide” (Wockhardt Limited, priority 2006, published 2008).

In the case of `CCN(CC)C(=O)C(C#N)=Cc1cc(O)c(O)c([N+](=O)[O-])c1` [(Z)-isomer, N,N-diethyl-2-cyano-3-(3,4-dihydroxy-5-nitrophenyl)acrylamide], the “stability under the influence of heat or acids” value was “unstable”.
Take `CCN(CC)C(=O)/C(C#N)=C/c1cc(O)c(O)c([N+](=O)[O-])c1` [polymorphic form B, (E)-N,N-diethyl-2-cyano-3-(3,4-dihydroxy-5-nitrophenyl)acrylamide]: the “stability under the influence of heat or acids” value is given as “unstable”. Also, the “isomerization to polymorphic form A on standing” value (standing at room temperature) is listed as “isomerizes slowly to the polymorphic form A”.
